Where “and” joins values, the source holds several entries; their conditions need not be identical. Equal values may be shown once. *1 amine or outer side, *2 acyl side, *3 side chain or, on linkers, in order; H or OH if unused. Where a SMILES comes first, the peptide text is derived from it. Bridges are numbered along the chain shown (N, C = ends). Roman numbers before positions name the chains, in order. [ ]: non-standard residue; d: D form. Actinocin(9to1) = Cc1c2oc3c(C)ccc(C(=O)[*:1])c3nc-2c(C(=O)[*:2])c(N)c1=O; NMeV = CN[C@H](C(=O)O)C(C)C; Sar = CNCC(=O)O
How the values were obtained:
Assay type in all cases: cell-based
[1] = system: latently HIV-1 infected CA5 T cells
[2] = system: latently HIV-1 infected CA5 T cells; remark: listed apart in the source
Protocol: (§1) Infection levels in the cell cultures were monitored by flow cytometric analysis of EGFP expression. Flow cytometric analysis was performed on a GUAVA EasyCyte (Millipore; Billerica, Mass.), or a LSRII (Becton & Dickinson; Franklin Lakes, N.J.).
Bacterial growth. Bacteria from various sources were isolated on TSA II agar plates containing 5% sheep blood. Bacterial isolates were then grown in RPMI 1640 medium supplemented with 10% FBS. After two days of incubation at 37° C. bacteria were pelleted and resuspended in RPMI medium to an optical density (OD600) of 8, aliquoted and frozen at −80° C. Unless otherwise indicated, Massilia timonae was grown in RPMI 1640 medium supplemented with 10% FBS. Typically, medium was inoculated with Massilia timonae from frozen stocks to an OD600 of 0.01. After 48 hours at 37° C., the culture was centrifuged at 3200 g to separate bacteria from the culture medium. Bacteria were resuspended in fresh medium to an OD600 of 8 and frozen to be used as references and stock cultures. The supernatant was then centrifuged at 10,000 g for 20 minutes and sterilized by passage through a 0.2 μm PVDF filter with low protein binding ability. HRF activity was determined by its ability to reactivate latent HIV-1 infection in CA5 cells. Only supernatants of which 6 μl reactivated infection in at least 60% of CA5 cells were used to study HRF properties.
Flow cytometry. Infection levels in the cell cultures were monitored by flow cytometric (FCM) analysis of GFP expression. FCM analysis was performed on a GUAVA EasyCyte (GUAVA Technologies, Inc.; Millipore; Billerica, Mass.) and a BD FACSCalibur or a LSRII (Becton & Dickinson; Franklin Lakes, N.J.). Cell sorting experiments were performed using a FACSAria™ Flow Cytometer (Becton&Dickinson). Data analysis was performed using either CellQuest (Becton&Dickinson) or GUAVA Express (GUAVA Technologies, Inc.).
To identify the optimal concentration of dactinomycin, CA5 T cells were pretreated with increasing concentrations of dactinomycin (0.0001 and 1 μg/ml), and then left untreated or stimulated with a sub-optimal concentration of HRF or TNF-α. Representative results for stimulation with HRF are depicted in FIG. 3. The chosen HRF concentration has only minimal HIV-1 reactivating effect by itself (15% reactivation over background). Twenty four hours after activator addition, levels of HIV-1 reactivation were determined as the percentage of GFP-positive cells using flow cytometric analysis, which allowed for the simultaneous determination of cell viability. […] Optimal pretreatment time was 18 hours. Maximum reactivation effects were seen 48 hours after stimulation.

[3] = system: latently HIV-2 infected J2574 reporter T cells; assay: Priming of latent HIV-2 infection in J2574 reporter T cells infected with HIV-2 7312A
Protocol: J2574 reporter T cells were infected with HIV-2 7312A and a latently infected cell population was established (>90% latently infected cells). […] Reactivation levels were determined 24 hours post HRF activation by quantifying the level of GFP-positive cells using flow cytometric analysis.
J2574 reporter T cells were generated by retrovirally transducing Jurkat T cells with a HIV-1 reporter construct (p2574) in which the HIV-1 LTR controls the expression of GFP. The HIV-1 LTR and the GFP gene are separated by a 2,500 base pair (bp) spacer element. Lentiviral particles were produced by transfecting 293T cells with p2574 and supplying gag-pol-rev-tat in trans. VSV-G was used as viral envelope protein. Following lentiviral transduction of Jurkat cells, all cells that spontaneously expressed GFP were removed by cell sorting. The GFP-negative population was then activated with PMA to identify all cells that would harbor an inducible LTR-GFP-LTR integration event. Cells that turned GFP-positive following stimulation were again selected by cell sorting. GFP expression in this population ceased after a few days leaving a population of GFP-negative reporter cells. The amount of founder cells for this population is calculated to represent >50,000 individual integration events.
To determine the ability of dactinomycin to prime a latent HIV-2 infection, a latently HIV-2 infected population of GFP reporter T cells was tested. Briefly, to create the latent HIV-2 infected population, J2574 reporter cells were infected with HIV-2 7312A and a population of latently HIV-2 infected cells was generated by removing the actively infected, GFP-positive cells using a fluorescence activated cell sorter.

[4] = system: latently HIV-1 infected primary T cells; assay: Reactivation of latent HIV-1 infection in primary T cells (GFP); conditions: 24 hours
Protocol: Latently HIV-1 infected primary T cells were treated for 24 hours with aclacinomycin (ACM) or dactinomycin (ActD), or with the anti-CD3 monoclonal antibody (mAb) OKT3. Reactivation levels were determined as a percentage of GFP-positive cells 24 hours after stimulation. Viability of the cells correlates with the size of the symbol.
To determine if aclacinomycin or dactinomycin were capable of reactivating a latent HIV-1 infection in primary T cells, latently HIV-1 infected primary T cells were treated with aclacinomycin or dactinomycin or with the anti-CD3 monoclonal antibody OKT3 for 24 hours. Reactivation of the latent HIV-1 infection was observed by increasing levels of GFP fluorescence.

[5] = system: latently HIV-1 infected reporter T cell lines
Protocol: FIGS. 1A and 1B show culture supernatants from Massilia timonae reactivate latent HIV-1 infection. […] Untreated control cells and HRF-treated cells were subjected to flow cytometric analysis to determine enhanced green fluorescent protein (EGFP) expression as a direct and quantitative marker of HIV-1 expression 24 hours post stimulation. FSC/SSC dot plots are represented to evaluate cell viability as a function of changes in the FSC (cell size)-SSC (granularity) phenotype of the cells. FIG. 1B is a histogram showing the reproducibility of the observed HIV-1 reactivation. Three independent preparations of HRF (batches HRF1-3) on four different latently infected T cell lines (5F3, 8E12, CA5 and 12D4) were tested. The percentage of EGFP positive cells following stimulation is depicted in the histogram. Cell culture supernatants of Pseudomonas aeruginosa cultures, grown under similar conditions, were used as specificity controls.
as §1

NF-κB p65 = NF-κB p65 activity in nuclear extracts of Jurkat cells (TransAM NF-κB family ELISA)
Protocol: FIGS. 7A-7D are graphs showing the kinetics of HRF-mediated induction of NF-κB activity. Jurkat or latently HIV-1 infected CA5 T cells were stimulated with optimal concentrations of PMA and HRF, and cells were harvested at the indicated time points. Nuclear extracts were generated and (FIGS. 7A and 7C) NF-κB p50 activity and (FIGS. 7B and 7D) NF-κB p65 activity were determined using the TransAM™ NF-κB family ELISA kit (Active Motif; Carlsbad, Calif.).
Cells were grown in RPMI medium supplemented with 10% FBS and 1% PSG to approximately 5×10^5 cells per milliliter. Cells were centrifuged and resuspended in fresh pre-warmed medium. PMA, HRF and/or JNKiV were added immediately at the indicated concentrations. The final cell density for the assay was 1×10^6 cells per milliliter. The culture flasks were kept in a humidified CO2 incubator at 37° C. For each time point, a 1 ml cell suspension was removed and immediately centrifuged at full speed in a tabletop centrifuge for 30 seconds. […] The protein concentration of the extracts was determined by using the BCA protein assay Kit (ThermoFisher). […] The absorbance at 595 nm was determined using a 96 well plate reader (Synergy HT, BIO-Tek; Winooski, Vt.).
NF-κB activity in nuclear extracts was quantified using the TransAM™ NF-κB family ELISA kit from Active Motif, Inc. (Carlsbad, Calif.) according to the manufacturer's instructions.

Cc1c2oc3c(C)ccc(C(=O)N[C@@H]4C(=O)N[C@H](C(C)C)C(=O)N5CCC[C@H]5C(=O)N(C)CC(=O)N(C)[C@@H](C(C)C)C(=O)O[C@@H]4C)c3nc-2c(C(=O)N[C@@H]2C(=O)N[C@H](C(C)C)C(=O)N3CCC[C@H]3C(=O)N(C)CC(=O)N(C)[C@@H](C(C)C)C(=O)O[C@@H]2C)c(N)c1=O [dactinomycin] (I: T[dV]P[Sar][NMeV] / II: T[dV]P[Sar][NMeV]; ester I:1-I:C, II:1-II:C; linker I:N-II:N via Actinocin(9to1))
priming effects with low concentrations of TNF-α or PMA as reactivating agents [1]: Priming effects of dactinomycin were also observed
priming effect for reactivation by TNF-α ([1]; CA5 cells, same sense integration, 4 ng/ml, 18 hours pretreatment): exerted its priming effect in each integration scenario
concentrations acting as inhibitor of HIV-1 expression and reactivation ([1]; observed at the onset of drug toxicities): ≥ 10 ng/mL
concentrations at which a priming effect was observed ([1]; pretreatment, then sub-optimal HRF or TNF-α): ≥ 0.5 ng/mL
priming effect on HIV-1 reactivation by sub-optimal dose of HRF ([2]; CA5 cells pretreated with increasing concentrations): strong priming effect
concentration of optimal priming activity ([2]; pretreatment, then sub-optimal HRF or TNF-α, both T cell lines): about 4 ng/ml and ~3.18 nM
concentration range that efficiently primed latent HIV-2 infection for reactivation ([3]; 18 hours pretreatment, sub-optimal HRF): 2 to 8 ng/mL
HIV-2 reactivation levels ([3]; costimulation: dactinomycin pretreatment plus sub-optimal HRF): up to 90%
reactivation of latent HIV-1 infection [4]: capable of reactivating latent HIV-1 infections

B1: HRF: flagellin polypeptide from Massilia timonae (SEQ ID NO:10), used as bacterial culture supernatant (protein)
chain: MASVINTNVPSLNSQRNLSTSQAQLNTSIQRLSSGMRINSAKDDAAGLAISDRMNSQIKGMTQATRNANDGVSMAQTAEGALSSSGDILQRIRELAVQSSNSSNSASDRKALQTEVTQLSSELNRIANTTEFNGQKLMDGTLGTANFQVGANAGQLISMTGANFNTSVYGNNQIAGDAAKAAATTSAAATGAFTISGYLGTSAAINTTDADTAKTIAASINNVTGDTGVTATARTDSFLKSAGGAHTMSLASDNSGTGEAVDISFTVGDGGDTADDYAAAISAFNAQTAKTGVTAEYDAVEKGLKLTNSAGENISLTNKAGSADIDMDTYAADGALMASALTLEAGDVGVANGRVTMDSEKSFSVAEGTDTGFELADSSALKSVAKIDISDFEGAQEAIKVADAALSAVNSQRAEYGALQSRFESAISNLSSSTENLSASRSRIVDTDFAAETAKMTRGQILQQAGTSMLAQANSLPNGVLSLLRG
efficiency of HIV-1 reactivation ([1]; compared with Salmonella typhimurium flagellin): same efficiency as Salmonella typhimurium flagellin
potency of activating latent HIV-1 provirus ([1]; compared with TNFα or PMA): potency comparable to that of TNFα or PMA
HIV-1 reactivation over background ([2]; sub-optimal HRF concentration by itself): 15%
HIV-2 reactivation (cells) ([3]; sub-optimal dose of HRF by itself): 10%
cell viability (flow cytometric FSC/SSC analysis) ([5]; culture supernatant on latently infected reporter T cell lines): No effect on cell viability
HIV-1 reactivation ([5]; four latently infected reporter T cell lines, culture supernatant): efficiently reactivate latent HIV-1 infection
NF-κB p65 activation amplitude compared to PMA stimulation (NF-κB p65): ~3 fold

Source: patent US20140295012A1, “LATENT HUMAN IMMUNODEFICIENCY VIRUS REACTIVATION” (priority 2011, published 2014)
